The nature of series [1]: Body-weight change as toxicity parameter in S180 tumor-bearing mice. Type of series: in vivo. The conditions noted are these: for BWC (%) body-weight change: S180 tumor-bearing BALB/c mice; for Changes in body weight as parameter for toxicity (in words): ISL derivative 15 at 80 or 40 mg/kg, ISL at 40 mg/kg, S180 tumor-bearing mice. As for the experimental part: For comparison, ISL (40 mg/kg) was analyzed as positive control. Changes in body weight were used as parameter for toxicity.
(§1) Female BALB/c mice (6–8 weeks old, 25 ± 2 g) were obtained from the Third Affiliated Hospital of Harbin Medical University. S180 sarcoma cells were purchased from the Experimental Animal Center of Peking University Health Science Center (Heilongjiang, China). The animals were housed in polypropylene cages and maintained under controlled conditions of 12 h light/12 h dark photoperiod and 55 ± 5% relative humidity at room temperature (28 ± 2 °C). After fed in our facility for 1 week, 40 mice were induced S180 tumor cells according to Wu et al. with some modification. All mice were subcutaneously implanted with 1 × 10^6 cells/mice on the right flank. After inoculation for 24 h, all animals were randomly divided into one untreated control group, one treated positive control group and two treated experimental groups (each group contained 10 mice).
(§2) Group I (untreated control) received orally the same volume of 0.9% normal saline once per day as the treated groups. Group II (treated positive control) received orally ISL at a dosage of 40 mg/kg body weight once per day. Group III (low dose of ISL derivative 15 treatment) received ISL derivative 15 orally (dissolved in 0.2 mL normal saline) at a dosage of 40 mg/kg body weight once per day. Group IV (high-dose of ISL derivative 15 treatment) received ISL derivative 15 orally (dissolved in 0.2 mL normal saline) at a dosage of 80 mg/kg body weight once per day.

The nature of series [2]: MTT cytotoxicity assay, THP-1 normal cells. The format is cell-based. The conditions noted are these: human, THP-1 cells (called normal cells). The protocol: (§3) We examined the cytotoxicity of ISL nitrogenous derivatives against three cancer cell lines (PC-3, MCF-7 and HO-8910) and normal human THP-1 cells using MTT growth inhibition assays. ISL was used as a positive control. […] The IC50 values were all above 100 µM.
(§4) Cytotoxicity was evaluated against four human cell lines (MCF-7 breast cancer, PC-3 prostatic cancer, HO-8910 ovarian cancer, and THP1 normal cells). Briefly, MCF-7, PC-3 and HO-8910 cells were separately plated in 96-well culture plates (1 × 10^5 cells/well). After 24 h incubation, cells were treated with compounds 7–16 (0, 3.13, 6.25, 12.5, 25, 50 and 100 µM) for 72 h. MTT solution (5 mg/mL) was then added to each well. After 4 h incubation, the formazan precipitate was dissolved in […] dimethyl sulfoxide (DMSO), and then the absorbance was measured in an ELISA reader (Thermo Molecular Devices Co., Union City, CA, USA) at 570 nm. The cell viability ratio was calculated by the following formula: Inhibitory ratio (%) = (1 − ODtreated/ODcontrol) × 100%.
Background: Tetrazolium assays rely on reduction of a dye to a coloured formazan, in cell work by metabolically active cells.

The subject of series [3] is MCF-7, human breast cancer cells. Description: MTT cytotoxicity assay, MCF-7. The format is cell-based. Conditions: MCF7, 72 h. The protocol:
as §3, §4

A further series relates to S180 sarcoma cells. Description: Anti-tumor activity in S180 tumor-bearing mice. The conditions noted are these: S180 tumor-bearing BALB/c mice. Type of series: in vivo. The protocol: as §1, §2
In series [4] the test system is HO-4980, human ovarian cancer cells. Description: MTT cytotoxicity assay, HO-4980 (HO-8910). Conditions: 72 h. The format is cell-based. The protocol:
as §3, §4

The subject of series [5] is PC-3, human prostate cancer cells. The series is described as follows: MTT cytotoxicity assay, PC-3. Type of series: cell-based. Conditions: 72 h. As for the experimental part: as §3, §4

“And” between values parts separate entries of the source, which are not always exact repeats. Equal values may be shown once.

With `O=C(/C=C/c1ccc(O)cc1)c1ccc(O)cc1O` [ISL, isoliquiritigenin], the “BWC (%) body-weight change” value in series [1] (40 mg/kg orally once per day) is −3.0%. Moreover, the “Changes in body weight as parameter for toxicity (in words)” value in series [1] is on record as “slight weight loss”. Moreover, the IC50 is greater than 100 µM in series [2], 44.1 µM in series [3], 58.4 µM in series [4] and 36.9 µM in series [5]. Besides, in the series with S180 sarcoma cells (40 mg/kg orally once per day), the “TIR (%) tumor inhibitory rate” value is 32.44%. Further, the “TW (g) x ± SD (tumor weight)” value in the series with S180 sarcoma cells (40 mg/kg orally once per day) turned out to be 0.85 ± 0.369 g.

In the case of `O=C(/C=C/c1ccc(O)cc1)c1ccc(O)c(CN(CCO)CCO)c1O` [Compound 15, (E)-1-(3-((bis(2-hydroxyethyl)amino)methyl)-2,4-dihydroxyphenyl)-3-(4-hydroxyphenyl)prop-2-en-1-one], the figures for the “BWC (%) body-weight change” value in series [1] (40 mg/kg orally once per day) and in series [1] (80 mg/kg orally once per day) were “+12.8%” and “+7.8%”, respectively. In addition, the “Changes in body weight as parameter for toxicity (in words)” value in series [1] is listed as “Loss of body weight was not found”. Besides, the IC50 is greater than 100 µM in series [2], 42.9 µM in series [3], 37.9 µM in series [4] and 35.1 µM in series [5]. Besides, the “TIR (%) tumor inhibitory rate” value came to 39.72% in the series with S180 sarcoma cells (40 mg/kg orally once per day) and 71.68% in the series on S180 sarcoma cells (80 mg/kg orally once per day). For the same compound, the “TW (g) x ± SD (tumor weight)” value with S180 sarcoma cells (40 mg/kg orally once per day) is 0.74 ± 0.618 g; in the series on S180 sarcoma cells (80 mg/kg orally once per day), 0.35 ± 0.442 g.

The compound `CC(C)N(Cc1c(O)ccc(C(=O)/C=C/c2ccc(O)cc2)c1O)C(C)C` [Compound 10] came in with a melting point greater than 180 °C. Further, the IC50 in series [2] was greater than 100 µM. This compound also showed an IC50 in series [3] of 84.6 µM. For the same compound, the IC50 in series [4] came to 98.1 µM. Moreover, in series [5], the IC50 is greater than 100 µM.

In the case of `CCC(C)NCc1c(O)ccc(C(=O)/C=C/c2ccc(O)cc2)c1O` (stereo not shown) [Compound 12, (E)-1-(3-((sec-butylamino)methyl)-2,4-dihydroxyphenyl)-3-(4-hydroxyphenyl)prop-2-en-1-one], the melting point is greater than 175 °C. The IC50 in series [2] is greater than 100 µM. The same compound returned an IC50 in series [3] of 84.8 µM. Besides, the IC50 in series [4] was greater than 100 µM. This compound also showed an IC50 in series [5] of 57.1 µM.

For `O=C(/C=C/c1ccc(O)cc1)c1ccc(O)c(CN2CCCC2)c1O` [Compound 16], the melting point is 116.5 to 117.1 °C and 116.5 to 117.4 °C. The same compound displayed an IC50 in series [2] greater than 100 µM. In series [3], this compound displayed an IC50 of 81.8 µM. This compound displayed an IC50 in series [4] of 74.9 µM. The same compound had a half-maximal inhibitory concentration (IC50) in series [5] greater than 100 µM.

`O=C(/C=C/c1ccc(O)cc1)c1ccc(O)c(CNC2CCCCC2)c1O` [Compound 9, (E)-1-(3-(cyclohexylaminomethyl)-2,4-dihydroxyphenyl)-3-(4-hydroxyphenyl)prop-2-en-1-one] registered a melting point greater than 168 °C. In addition, the half-inhibitory concentration (IC50) in series [2] is greater than 100 µM. The compound further had an IC50 in series [3] of 73.6 µM. Further, the IC50 in series [4] is greater than 100 µM. The compound also gave an IC50 in series [5] of 28.3 µM.

Turning to `CN(C)Cc1c(O)ccc(C(=O)/C=C/c2ccc(O)cc2)c1O` [Compound 7, (E)-1-(3-(dimethylaminomethyl)-2,4-dihydroxyphenyl)-3-(4-hydroxyphenyl)prop-2-en-1-one], the melting point is greater than 176 °C. This compound also came in with an IC50 in series [2] greater than 100 µM. The same compound displayed an IC50 in series [3] greater than 100 µM. This compound came in with an IC50 in series [4] greater than 100 µM. The compound also had an IC50 in series [5] greater than 100 µM.

In turn, `CC(C)(C)NCc1c(O)ccc(C(=O)/C=C/c2ccc(O)cc2)c1O` [Compound 13, (E)-1-(3-((tert-butylamino)methyl)-2,4-dihydroxyphenyl)-3-(4-hydroxyphenyl)prop-2-en-1-one] returned a melting point greater than 170 °C. This compound also returned a half-inhibitory concentration (IC50) in series [2] greater than 100 µM. The IC50 in series [3] was greater than 100 µM. This compound also came in with a half-inhibitory concentration (IC50) in series [4] greater than 100 µM. In series [5], this compound displayed an IC50 greater than 100 µM.

`O=C(C=Cc1ccc(O)cc1)c1ccc(O)c(CNCCO)c1O` [Compound 14, 1-(2,4-dihydroxy-3-((2-hydroxyethylamino)methyl)phenyl)-3-(4-hydroxyphenyl)propen-1-one] gave a melting point greater than 180 °C. The compound further gave an IC50 in series [2] greater than 100 µM. Moreover, the IC50 in series [3] amounted to 66 µM. In addition, in series [4], the IC50 stood at 89 µM. The compound further yielded an IC50 in series [5] of 87.7 µM.

In turn, `CCN(CC)Cc1c(O)ccc(C(=O)/C=C/c2ccc(O)cc2)c1O` [Compound 11, (E)-1-(3-((diethylamino)methyl)-2,4-dihydroxyphenyl)-3-(4-hydroxyphenyl)prop-2-en-1-one] registered a melting point greater than 176 °C. Besides, the IC50 in series [2] was greater than 100 µM. Moreover, the IC50 in series [3] is greater than 100 µM. The compound also displayed an IC50 in series [4] of 97.3 µM. Besides, 66 µM corresponded to half-maximal inhibition in series [5] (IC50).

For `O=C(/C=C/c1ccc(O)cc1)c1ccc(O)c(CN2CCOCC2)c1O` [Compound 8, (E)-1-(2,4-dihydroxy-3-(morpholinomethyl)phenyl)-3-(4-hydroxyphenyl)prop-2-en-1-one], the melting point was greater than 180 °C. In series [2], the IC50 was greater than 100 µM. For the same compound, the IC50 in series [3] was greater than 100 µM. For the same compound, in series [4], the IC50 was found to be 96.4 µM. For the same compound, in series [5], inhibition was half-maximal at 48.6 µM (IC50).

For orientation: IC50 means the concentration at which inhibition is half-maximal. Broadly, the melting point is the temperature of the solid-liquid transition.
